{"source": "patent US20230009366A1", "about": "“Using Alternating Electric Fields at Different Frequencies to Increase Permeability of the Blood Brain Barrier and also to Provide Other Benefits” (Novocure GmbH, priority 2021, published 2023)", "key": {"[1]": {"tested_on": "MDA-MB-435 human melanoma cell line cells", "assay": "7-AAD accumulation by flow cytometry", "format": "cell-based", "description": "FIG. 22A depicts the results of an experiment performed to determine how alternating electric fields affect the permeability of the cell membranes of MDA-MB-435 human melanoma cell line cells. In this experiment, MDA-MB-435 cells were treated with an alternating electric field at 150 kHz with a field strength of 1.62 V/cm for 24 hours, at an ambient temperature of 18° C. and a dish temperature of 37° C. (The dish temperature in this and other examples is higher than the ambient temperature due to heating caused by the alternating electric fields.) After the first 23.75 hours, 7-AAD was added to the culture and incubated for 15 minutes during which time the alternating electric fields was continued (to complete the 24 hour period). After this 15 minute period, alternating electric field application was terminated and the cells were incubated at room temperature for an additional 15 minutes.\nIn a variation of this experiment, MDA-MB-435 human melanoma cell line cells were treated with an alternating electric field at 150 kHz with a field strength of 1.62V/cm for 24 hours, at an ambient temperature of 18° C. and a dish temperature of 37° C. After this 24 hour period, the alternating electric fields were turned off for 15 minutes, after which the 7-AAD was added. After waiting an additional 15 minutes, the percentage of cells with increased accumulation of the fluorescent 7-AAD was determined using flow cytometry."}, "[2]": {"tested_on": "U87-MG cells", "assay": "7-AAD accumulation by flow cytometry", "format": "cell-based, human", "conditions": "300 kHz, 1.62 V/cm RMS, 24 h; only sample incubated with 7-AAD while subjected to field", "description": "FIG. 21D depicts the results of an experiment to test how quickly the permeability drops back down after cessation of the alternating electric fields. More specifically, 7-Aminoactinomycin D (7-AAD) is a fluorescent chemical compound with a strong affinity for DNA. […] In this experiment, the cells were treated with an alternating electric field at 300 kHz with a field strength of 1.62 V/cm RMS for 24 hours, at an ambient temperature of 18° C. 7-AAD was introduced into samples at five different times: 15 minutes prior to the cessation of the alternating electric field; immediately after cessation of the alternating electric field; and 15, 30, and 60 minutes after cessation of the alternating electric field. In each case, the cells were incubated with 7-AAD for 30 minutes after introduction of the 7-AAD, followed by flow cytometry analysis of the percentage of cells with increased accumulation of the fluorescent 7-AAD for each of the different timings.\nIn this experiment, the cells were treated with an alternating electric field at different frequencies with a field strength of 1.62 V/cm RMS for a total of 24 hours, at an ambient temperature of 18° C. and a dish temperature of 37° C. After the first 23.75 hours, 7-AAD was added to the culture and incubated for 15 minutes during which time the alternating electric fields was continued (to complete the 24 hour period). […]"}, "[3]": {"tested_on": "GBM39 cells", "assay": "Drug sensitivity with TTFields", "format": "cell-based, human", "conditions": "TTFields for 3 days vs no TTFields"}, "[4]": {"tested_on": "pcGBM2/GFP-Luc cells"}, "[5]": {"tested_on": "U87-MG/GFP-Luc cells", "assay": "Drug sensitivity / synergy with TTFields", "format": "cell-based, human"}, "[6]": {"tested_on": "MCF-7 cells, mitoxantrone resistant", "assay": "Intracellular accumulation of mitoxantrone", "format": "cell-based, human", "conditions": "2 μM, one hour; 150 kHz, 1.62 V/cm fields", "description": "(§1) FIG. 22C depicts the results of a similar experiment using MCF-7 human breast adenocarcinoma cell line cells and mitoxantrone (444.481 g/mol). In this experiment, both wild type and mitoxantrone resistant variants of MCF-7 cells were treated with an alternating electric field at 150 kHz with a field strength of 1.62 V/cm for 23 hours. After this 23 hour period, mitoxantrone at a concentration of 2 μM was added and incubated for one hour, during which time the alternating electric fields was continued. The intracellular accumulation of mitoxantrone was then measured. The intracellular accumulation of mitoxantrone increased for both the wild type cells (compare bar 1 to bar 3) and the mitoxantrone resistant cells (compare bar 2 to bar 4)."}, "[7]": {"tested_on": "MCF-7 cells, wild type", "assay": "Intracellular accumulation of mitoxantrone", "format": "cell-based, human", "conditions": "2 μM, one hour; 150 kHz, 1.62 V/cm fields", "description": "as §1"}, "[8]": {"tested_on": "U87-MG cells", "assay": "5-ALA uptake (PpIX fluorescence), single culture", "format": "cell-based, human", "description": "Experiments were performed to determine the effects of TTFields on uptake of 5-ALA (as measured by PpIX accumulation and its resultant fluorescence) in glioblastoma cells. Because it is difficult to distinguish the margin between tumor and normal cells using the present 5-ALA bioassay, the measurement of PpIX fluorescence was used to address this issue. Investigations were run to determine whether permeation of 5-ALA through the cellular membrane and into the glioblastoma cells could be increased with TTFields exposure. U87-MG cells were exposed or unexposed to TTFields, each for durations of 6-24 h.\nTo generate the data depicted in FIG. 18A, protoporphyrin IX (PpIX) fluorescence panels were obtained for TTFields-unexposed vs. TTFields-exposed U87-MG cells after 6 and 24 h of exposure. […] All monovariant statistical comparisons between no TTFields vs. TTFields samples done by Student's t-test for n=3 experiments per time point."}, "[9]": {"tested_on": "U87-MG/eGFP-fLuc cells", "assay": "Reversibility of TTFields-induced uptake", "format": "cell-based, human", "conditions": "TTFields 24 h vs none vs TTFields 24 h followed by no TTFields 24 h", "description": "To assess the reversibility of the effect of TTFields on cancer cells, U87-MG/eGFP-fLuc cells were subjected to three conditions: (1) No TTFields exposure, standard cell culture conditions (37° C., […], 5% CO2), (2) TTFields exposure for 24 h and (3) TTFields exposure for 24 h followed by no TTFields exposure for 24 h. The readouts of BLI, PpIX fluorescence (5-ALA product) and Dextran-FITC (4 kDa) fluorescence were acquired. All experimental conditions were done in triplicate. […] Here, NS=not significant; BLI=bioluminescent imaging; eGFP=enhanced green fluorescence protein; fLuc=firefly luciferase; 5-ALA=5 aminolevulinic acid; FITC=fluorescein isothiocyanate; PpIX=protoporphyrin IX; and FL=fluorescence.\nIn vitro tumor treating field apparatus: The coverslips were transferred to a ceramic dish of the Inovitro™ system, which in turn was mounted onto Inovitro™ base plates (Novocure Ltd., Haifa, Israel). Tumor treating fields at 200 kHz (1-4 V/cm) were applied through an Inovitro™ power generator. Incubator ambient temperatures spanned 20-27° C. with a target temperature of 37° C. in the ceramic dishes upon application of the TTFields. Duration of TTFields exposure lasted anywhere from 0.5 to 72 h, after which coverslips were removed and processed for the appropriate bioassays (see below). […]"}, "[10]": {"tested_on": "U87-MG cells on PCS-201 fibroblasts", "assay": "5-ALA uptake (PpIX fluorescence), glioblastoma-fibroblast co-culture", "format": "cell-based, human", "description": "During glioblastoma resection in patients, 5-ALA is used to aid neurosurgeons in delineating between the tumors and surrounding normal brain tissue. Likewise, to distinguish differences in 5-ALA uptake between glioblastoma and normal cells, a co-culture was developed where U87-MG cells were seeded in the center of a bed of PCS-201 fibroblasts and were subjected to TTFields or to no TTFields. Fluorescent and brightfield photomicrographs confirmed the presence of discrete glioblastoma vs. fibroblast cell regions in the co-culture set-up.\nIn particular, without TTFields exposure, the GBM cells formed many pockets of adherent neurospheres as was previously reported. […] To generate the data depicted in FIG. 18B, fluorescent panels of 5-ALA uptake (and subsequent PpIX fluorescence, Ex=558 nm, Em=583 nm) for no TTFields and TTFields were obtained. Duration of exposures are 2, 6, and 24 h. Quantification of time course of PpIX accumulation (and thus accumulation of fluorescent flux as expressed as photons/s) in the glioblastoma-fibroblast co-culture platform under TTFields exposed vs. unexposed conditions (p<0.001). Statistical analyses consisted of two-way ANOVA for no TTFields vs. TTFields conditions, and n=3 experiments per time point."}, "[11]": {"tested_on": "MDA-MB-435 cells, doxorubicin resistant", "assay": "Intracellular accumulation of doxorubicin", "format": "cell-based, human", "conditions": "10 μM, one hour; 150 kHz, 1.62 V/cm fields"}, "[12]": {"tested_on": "MDA-MB-235 cells", "assay": "Drug sensitivity / synergy with TTFields", "format": "cell-based"}, "[13]": {"tested_on": "MES-SA cells", "assay": "Intracellular accumulation of doxorubicin", "format": "cell-based", "conditions": "10 μM, one hour; 150 kHz, 1.62 V/cm RMS, 24 hours", "procedure": "FIG. 26C depicts the results of another experiment performed to determine how 150 kHz alternating electric fields affect the permeability of the cell membranes of MES-SA cells to doxorubicin (543.52 g/mol). In this experiment, MES-SA cells were treated with an alternating electric field at 150 kHz with a field strength of 1.62 V/cm RMS for 24 hours. After the first 23 hours, doxorubicin at a concentration of 10 μM was added and incubated for one hour during which time the alternating electric fields was continued (to complete the 24 hour period). The intracellular accumulation of doxorubicin was then measured."}, "[14]": {"tested_on": "MDA-MB-435 cells, wild type", "assay": "Intracellular accumulation of doxorubicin", "format": "cell-based, human", "conditions": "10 μM, one hour; 150 kHz, 1.62 V/cm fields"}, "[15]": {"tested_on": "human glioblastoma cells", "assay": "Growth inhibition by TTFields plus Withaferin A", "format": "cell-based"}, "[16]": {"tested_on": "U87-MG/eGFP-fLuc cells", "assay": "Annexin-V-APC binding (apoptosis positive control)", "format": "cell-based, human", "conditions": "21 μM, TTFields-unexposed samples", "procedure": "Initially, the impact of TTFields on the binding of Annexin-V-APC to the membrane of U87-MG/eGFP-fLuc cells was measured. Annexin-V-APC binding is a signature of early apoptosis which is characterized by ruffling of the membrane."}, "[17]": {"tested_on": "GBM39/Luc cells", "assay": "Drug sensitivity / synergy with TTFields", "format": "cell-based, human"}, "[18]": {"conditions": "TTFields for 3 days vs no TTFields"}}}
{"smiles": "Cc1c2oc3c(C)c(N)cc(C(=O)N[C@@H]4C(=O)N[C@H](C(C)C)C(=O)N5CCC[C@H]5C(=O)N(C)CC(=O)N(C)[C@@H](C(C)C)C(=O)O[C@@H]4C)c3nc-2c(C(=O)N[C@@H]2C(=O)N[C@H](C(C)C)C(=O)N3CCC[C@H]3C(=O)N(C)CC(=O)N(C)[C@@H](C(C)C)C(=O)O[C@@H]2C)c(N)c1=O", "note": "[7-AAD, 7-Aminoactinomycin D]", "values": [{"measurement": "percentage of cells with increased accumulation of 7-AAD", "setting": "[1]; 150 kHz, 1.62V/cm, 24 h, 7-AAD added 15 minutes after fields turned off", "result": "~20", "unit": "%"}, {"measurement": "percentage of cells with increased accumulation of 7-AAD", "setting": "[1]; 150 kHz, 1.62 V/cm, 24 h, 7-AAD added for last 15 minutes of field", "result": "~66", "unit": "%"}, {"measurement": "percentage of cells with increased accumulation of 7-AAD", "setting": "[1]; control, alternating electric fields not applied", "result": "less than 5%"}, {"measurement": "accumulation of 7-AAD", "setting": "[2]", "result": "significant increase in accumulation"}]}
{"smiles": "O=NN(CCCl)C(=O)NC1CCCCC1", "note": "[Lomustine]", "values": [{"measurement": "sensitivity of cells to drug", "setting": "[3]", "result": "improves the sensitivity"}, {"measurement": "sensitivity of cells to drug", "setting": "[4]; [18]", "result": "improves the sensitivity"}, {"measurement": "sensitivity of cells to drug", "setting": "[5]; [18]", "result": "improves the sensitivity"}]}
{"smiles": "O=C1c2c(O)ccc(O)c2C(=O)c2c(NCCNCCO)ccc(NCCNCCO)c21", "note": "[mitoxantrone]", "values": [{"measurement": "intracellular accumulation of mitoxantrone", "setting": "[6]", "result": "increased"}, {"measurement": "intracellular accumulation of mitoxantrone", "setting": "[7]", "result": "increased"}]}
{"smiles": "NCC(=O)CCC(=O)O", "note": "[5-ALA, 5-aminolevulinic acid]", "values": [{"measurement": "uptake of 5-ALA (PpIX fluorescence)", "setting": "[8]; 6 h TTFields vs no TTFields, p=0.047", "result": "significantly increased uptake"}, {"measurement": "uptake of 5-ALA (PpIX fluorescence)", "setting": "[8]; 24 h TTFields vs no TTFields, p=0.011", "result": "increase was maintained"}, {"measurement": "reversibility of increased uptake", "setting": "[9]", "result": "reversibly increase uptake"}, {"measurement": "ratio of PpIX fluorescence intensity, U87-MG cells over PCS-201 fibroblast cells", "setting": "[10]; 24 h TTFields vs no TTFields, p=0.043", "result": "significantly increased"}, {"measurement": "rate of PpIX fluorescence intensity increase", "setting": "[10]; TTFields-exposed vs unexposed co-cultures, 2, 6, 24 h", "result": "significantly augmented"}]}
{"smiles": "COc1cccc2c1C(=O)c1c(O)c3c(c(O)c1C2=O)C[C@@](O)(C(=O)CO)C[C@@H]3O[C@H]1C[C@H](N)[C@H](O)[C@H](C)O1", "note": "[doxorubicin]", "values": [{"measurement": "intracellular accumulation of doxorubicin", "setting": "[11]", "result": "increased"}, {"measurement": "synergy of TTFields plus drug", "setting": "[12]", "result": "Evidence of synergy"}, {"measurement": "sensitivity of cells to drug", "setting": "[12]; [18]", "result": "improves the sensitivity"}, {"measurement": "increase of intracellular accumulation of doxorubicin", "setting": "[13]", "result": "more than 2 ×"}, {"measurement": "intracellular accumulation of doxorubicin", "setting": "[14]", "result": "increased"}]}
{"smiles": "CC1=C(CO)C(=O)O[C@@H]([C@@H](C)[C@H]2CC[C@H]3[C@@H]4C[C@H]5O[C@]56[C@@H](O)C=CC(=O)[C@]6(C)[C@H]4CC[C@]23C)C1", "note": "[Withaferin A]", "values": [{"measurement": "growth of human glioblastoma cells, TTFields in conjunction with compound", "setting": "[15]", "result": "synergistically inhibited the growth"}, {"measurement": "Annexin-V-APC binding visualized via fluorescence microscopy", "setting": "[16]", "result": "could be visualized"}, {"measurement": "synergy of TTFields plus drug", "setting": "[17]", "result": "synergy was found"}, {"measurement": "synergy of TTFields plus drug", "setting": "[4]", "result": "synergy was found"}, {"measurement": "synergy of TTFields plus drug", "setting": "[5]", "result": "synergy was found"}]}
